The values below come from patent US20240317721A1, “PYRAZOLYL DERIVATIVES AS INHIBITORS OF THE KRAS MUTANT PROTEIN” (NOVARTIS AG, priority 2021, published 2024).

The target in the assay is KRasG12C (M1-K169, biotinylated on the N-terminus) (Homo sapiens (Human), UniProt P01116, G12C). The assay can be described thus: Covalent competition assay: scintillation proximity assay (SPA) quantifying covalent modification of KRASG12C. The conditions noted are these: competition with radiolabeled covalent probe (Compound B/Compound A), 2 hours incubation, 10 nM KRasG12C. It is filed as binding. The essentials:
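Test compounds compete with a radiolabeled covalent probe for modification of N-terminally biotinylated KRasG12C(M1-K169):GDP, final 10 nM protein, 25 nM radio-ligand, 475 nM unlabelled ligand, 2 h with agitation in 20 mM Tris-HCl pH 7.5, 150 mM NaCl, 0.1 mM MgCl2, 0.01% Tween-20.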
A general note: SPA uses beads or plates that emit light when radiolabelled molecules are held near them.
The term IC50 denotes the point on the concentration scale where inhibition reaches its midpoint. On to `C=CC(=O)N1CC2(CC(n3nc(N4CCN(C[C@@H]5COCCO5)C[C@@]4(CC)C(F)F)c(-c4c(Cl)c(C)cc5[nH]ncc45)c3C)C2)C1` (single isomer, unassigned) [Example 107a], for which the IC50 was above 5000 nM.
Next, `C=CC(=O)N1CC2(CC(n3nc(N4CCN(C(C)=O)C5(CCC5)C4)c(-c4c(Cl)c(C)cc5[nH]ncc45)c3C)C2)C1` (single isomer, unassigned) [Example 20a, 1-(6-(3-(5-acetyl-5,8-diazaspiro[3.5]nonan-8-yl)-4-(5-chloro-6-methyl-1H-indazol-4-yl)-5-methyl-1H-pyrazol-1-yl)-2-azaspiro[3.3]heptan-2-yl)prop-2-en-1-one]: 301 nM; `C=CC(=O)N1CC2(CC(n3nc(N4CCN(C5COC5)C[C@]4(C)CC)c(-c4c(Cl)c(C)cc5[nH]ncc45)c3C)C2)C1` (single isomer, unassigned) [Example 133a]: 1600 nM.
With `C=CC(=O)N1CC2(CC(n3nc(N4CCC(CN5CC6CC(C5)O6)CC4(C)C)c(-c4c(Cl)c(Cl)cc5[nH]ncc45)c3C)C2)C1` (single isomer, unassigned) [Example 228a, 1-(6-(3-(4-((6-oxa-3-azabicyclo[3.1.1]heptan-3-yl)methyl)-2,2-dimethylpiperidin-1-yl)-4-(5,6-dichloro-1H-indazol-4-yl)-5-methyl-1H-pyrazol-1-yl)-2-azaspiro[3.3]heptan-2-yl)prop-2-en-1-one] the figure was above 5000 nM.
With `C=CC(=O)N1CC2(CC(n3nc(N4CCC(CN5CCN(C)C(=O)C5)CC4(C)C)c(-c4c(Cl)c(Cl)cc5[nH]ncc45)c3C)C2)C1` (single isomer, unassigned) [Example 239a, 4-((1-(1-(2-acryloyl-2-azaspiro[3.3]heptan-6-yl)-4-(5,6-dichloro-1H-indazol-4-yl)-5-methyl-1H-pyrazol-3-yl)-2,2-dimethylpiperidin-4-yl)methyl)-1-methylpiperazin-2-one] the figure was 1600 nM; with `C=CC(=O)N1CC2(CC(n3nc(N4CCN(CC(C)(C)O)CC45CCC5)c(-c4c(Cl)c(C)cc5[nH]ncc45)c3C)C2)C1` (single isomer, unassigned) [Example 160a, 1-(6-(4-(5-Chloro-6-methyl-1H-indazol-4-yl)-3-(8-(2-hydroxy-2-methylpropyl)-5,8-diazaspiro[3.5]nonan-5-yl)-5-methyl-1H-pyrazol-1-yl)-2-azaspiro[3.3]heptan-2-yl)prop-2-en-1-one], above 5000 nM; with `CC[C@@]1(C)CN(C[C@@H]2COCCO2)CCN1c1nn(C2CC3(C2)CN(C(=O)/C=C/Cl)C3)c(C)c1-c1c(Cl)c(C)cc2[nH]ncc12` (single isomer, unassigned) [Example 175a], 939 nM.
With `C=CC(=O)N1CC2(CC(n3nc(N4CC[C@@H](CN5CC6C5CCN6C5COC5)CC4(C)C)c(-c4c(Cl)c(Cl)cc5[nH]ncc45)c3C)C2)C1` (single isomer, unassigned) [Example 278b, 1-(6-(4-(5,6-dichloro-1H-indazol-4-yl)-3-((R)-2,2-dimethyl-4-(((1S*,5S*)-2-(oxetan-3-yl)-2,6-diazabicyclo[3.2.0]heptan-6-yl)methyl)piperidin-1-yl)-5-methyl-1H-pyrazol-1-yl)-2-azaspiro[3.3]heptan-2-yl)prop-2-en-1-one], the IC50 was determined as 8 nM.
Turning to `C=CC(=O)N1CC2(CC(n3nc(N4CCN(C[C@@H]5COCCO5)C[C@@]4(C)C(F)F)c(-c4c(Cl)c(Cl)cc5[nH]ncc45)c3C)C2)C1` (single isomer, unassigned) [Example 105b], the IC50 is 19 nM.
Next, `C=CC(=O)N1CC2(CC(n3nc(N4CCN(S(C)(=O)=O)CC4(C)C)c(-c4c(Cl)c(C)cc5[nH]ncc45)c3C)C2)C1` (single isomer, unassigned) [Example 126b, 1-(6-(4-(5-chloro-6-methyl-1H-indazol-4-yl)-3-(2,2-dimethyl-4-(methylsulfonyl)piperazin-1-yl)-5-methyl-1H-pyrazol-1-yl)-2-azaspiro[3.3]heptan-2-yl)prop-2-en-1-one]: 170 nM.
Next, `C=CC(=O)N1CC2(CC(n3nc(N4CCN(C5COC5)C[C@@]4(C)CC)c(-c4c(Cl)c(C)cc5[nH]ncc45)c3C)C2)C1` (single isomer, unassigned) [Example 143a]: above 5000 nM; `C=CC(=O)N1CC2(CC(n3nc(N4CCN(c5nccn5C)C[C@]4(C)CC)c(-c4c(Cl)c(C)cc5[nH]ncc45)c3C)C2)C1` (single isomer, unassigned) [Example 194b]: 1300 nM; `C=CC(=O)N1CC2(CC(n3nc(N4CC[C@@H](CN5CCCC6CN(C)C(=O)C65)CC4(C)C)c(-c4c(Cl)c(Cl)cc5[nH]ncc45)c3C)C2)C1` (single isomer, unassigned) [Example 261b, (4aR*,7aR*)-1-(((R)-1-(1-(2-acryloyl-2-azaspiro[3.3]heptan-6-yl)-4-(5,6-dichloro-1H-indazol-4-yl)-5-methyl-1H-pyrazol-3-yl)-2,2-dimethylpiperidin-4-yl)methyl)-6-methyloctahydro-7H-pyrrolo[3,4-b]pyridin-7-one]: 15 nM.
With `C=CC(=O)N1CC2(CC(n3nc(N4CCC(N5CCOCC5)CC45CCC5)c(-c4c(Cl)c(C)cc5[nH]ncc45)c3C)C2)C1` (single isomer, unassigned) [Example 63a, 1-(6-(4-(5-chloro-6-methyl-1H-indazol-4-yl)-5-methyl-3-(8-morpholino-5-azaspiro[3.5]nonan-5-yl)-1H-pyrazol-1-yl)-2-azaspiro[3.3]heptan-2-yl)prop-2-en-1-one] the figure was 10 nM; with `C=CC(=O)N1CC2(CC(n3nc(N4CC[C@@H](CN5CC6(CCN(C(C)=O)C6)C5)CC4(C)C)c(-c4c(Cl)c(Cl)cc5[nH]ncc45)c3C)C2)C1` (single isomer, unassigned) [Example 268b], 7 nM.
On to `C=CC(=O)N1CC2(CC(n3nc(N4CCC5(CN(C6COC6)C5)CC45CCC5)c(-c4c(Cl)c(C)cc5[nH]ncc45)c3C)C2)C1` (single isomer, unassigned) [Example 93a, 1-(6-(4-(5-chloro-6-methyl-1H-indazol-4-yl)-5-methyl-3-(2-(oxetan-3-yl)-2,10-diazadispiro[3.1.3^6.3^4]dodecan-10-yl)-1H-pyrazol-1-yl)-2-azaspiro[3.3]heptan-2-yl)prop-2-en-1-one], for which the IC50 is above 5000 nM.
For the compound `C=CC(=O)N1CC2(CC(n3nc(N4CCN(C5CCOCC5)CC4(C)C)c(-c4c(Cl)c(Cl)cc5[nH]ncc45)c3C)C2)C1` (single isomer, unassigned) [Example 140a, 1-(6-(4-(5,6-dichloro-1H-indazol-4-yl)-3-(2,2-dimethyl-4-(tetrahydro-2H-pyran-4-yl)piperazin-1-yl)-5-methyl-1H-pyrazol-1-yl)-2-azaspiro[3.3]heptan-2-yl)prop-2-en-1-one], the IC50 amounted to 971 nM.
Next, `C=CC(=O)N1CC2(CC(n3nc(N4CC[C@@H](CN5CCN6C(=O)OCC6C5)CC4(C)C)c(-c4c(Cl)c(Cl)cc5[nH]ncc45)c3C)C2)C1` (single isomer, unassigned) [Example 312a]: 831 nM.
Next, `C=CC(=O)N1CC2(CC(n3nc(N4CC[C@@H](CN5CCN(C(=O)CO)CC5)CC4(C)C)c(-c4c(Cl)c(Cl)cc5[nH]ncc45)c3C)C2)C1` (single isomer, unassigned) [Example 310b]: 7 nM.
Regarding `C=CC(=O)N1CC2(CC(n3nc(N4CC[C@@H](CN5CCN(C)[C@H](CO)C5)CC4(C)C)c(-c4c(Cl)c(Cl)cc5[nH]ncc45)c3C)C2)C1` (single isomer, unassigned) [Example 270b], the IC50 was determined as 5 nM.
With `C=CC(=O)N1CC2(CC(n3nc(N4CCN(C(C)=O)CC4(C)C)c(-c4c(Cl)c(C)cc5[nH]ncc45)c3C)C2)C1` (single isomer, unassigned) [Example 18a, 1-(6-(3-(4-acetyl-2,2-dimethylpiperazin-1-yl)-4-(5-chloro-6-methyl-1H-indazol-4-yl)-5-methyl-1H-pyrazol-1-yl)-2-azaspiro[3.3]heptan-2-yl)prop-2-en-1-one] the figure was 6100 nM.
Next, `C=CC(=O)N1CC2(CC(n3nc(N4CC[C@@H](CN5CC6CC6(O)C5)CC4(C)C)c(-c4c(Cl)c(Cl)cc5[nH]ncc45)c3C)C2)C1` (single isomer, unassigned) [Example 258b]: 22 nM.
With `C=CC(=O)N1CC2(CC(n3nc(N4CCN(C5COC5)CC45CCCC5)c(-c4c(Cl)c(C)cc5[nH]ncc45)c3C)C2)C1` (single isomer, unassigned) [Example 144b, 1-(6-(4-(5-chloro-6-methyl-1H-indazol-4-yl)-5-methyl-3-(9-(oxetan-3-yl)-6,9-diazaspiro[4.5]decan-6-yl)-1H-pyrazol-1-yl)-2-azaspiro[3.3]heptan-2-yl)prop-2-en-1-one] the figure was 10 nM.
On to `C=CC(=O)N1CC2(CC(n3nc(N4CC[C@@H](CN5CCC6(C5)CN(C(C)=O)C6)CC4(C)C)c(-c4c(Cl)c(Cl)cc5[nH]ncc45)c3C)C2)C1` (single isomer, unassigned) [Example 317b], for which the IC50 was 7 nM.
As for `C=CC(=O)N1CC2(CC(n3nc(N4CCN(CCOC)C[C@]4(C)C(F)F)c(-c4c(Cl)c(C)cc5[nH]ncc45)c3C)C2)C1` (single isomer, unassigned) [Example 178b], the IC50 was found to be 48 nM.
On to `C=CC(=O)N1CC2(CC(n3nc(N4CC[C@@H](CN5CCOCC5)CC4(C)C)c(-c4c(Cl)c(Cl)cc5[nH]ncc45)c3C)C2)C1` (single isomer, unassigned) [Example 213b], for which the IC50 amounted to 12 nM.
Next, `C=CC(=O)N1CC2(CC(n3nc(N4CC[C@@H](CN5CCOCC5)CC4(C)C)c(-c4c(C)c(Cl)cc5[nH]ncc45)c3C)C2)C1` (single isomer, unassigned) [Example 233a]: 4000 nM.
